Results reported in patent publication US20150065416A1, “NOVEL DRUG COMBINATION” (FAB PHARMA SAS, priority 2013, published 2015).

Tests used:
Format in all cases: cell-based, Acinetobacter baumannii
[1] = tested on: A. baumannii CIP 5377, CIP 7034, AYE, SAN, RCH; test: Antimicrobial susceptibility testing (MIC, broth microdilution, EUCAST; Example 5)
Text: A. baumannii CIP 5377 (ATCC® 17978): low cephalosporinase producing strain, susceptible to meropenem and amikacin, isolated in an infected patient
A. baumannii CIP 7034: low cephalosporinase producing strain, susceptible to meropenem and amikacin A. baumannii AYE ATCC® BAA1710™: extended spectrum beta-lactamase producing strain susceptible to meropenem and resistant to amikacin
A. baumannii SAN-94040 (SAN): cephalosporinase-overproducing strain, susceptible to meropenem and intermediate to amikacin and resistant to fluoroquinolones, isolated from blood cultures of an intensive care patient with nosocomial pneumonia from North Africa (Algeria).
A. baumannii RCH-69: cephalosporinase producing strain; low susceptibility to imipenem and resistant to amikacin.

A. baumannii isolates [2] = test: Time kill study (Example 4); details: for Time to kill 99.9%: alone
Description: A total of 12 isolates were tested (three per sub-group either susceptible, meropenem-resistant, amikacin-resistant or colistin-resistant). Two combinations were tested per isolate. Time-kill kinetics were performed by testing compound (I) and an additional antibacterial agent (amikacin, colistin and meropenem) individually at 1× and 4× the corresponding MIC of each antibacterial agent. […] Samples were taken at 0, 2, 4, 8 and 24 hours in order to determine colony forming units (CFU/mL).
Time-kill studies were carried out as described in General Procedures using combinations of compound (I) with amikacin, meropenem and colistin, respectively.

A. baumannii isolates [3] = test: Checkerboard testing (compound (I)/antibacterial agent interaction, FIC index)
Description: Checkerboard interaction studies were performed using 5 isolates from each of the sub-groups and time kill studies were performed using 3 isolates from each sub-group.
Checkerboards (20 isolates, 5 per sub-group) were prepared so as to contain multiple concentrations of compound (I) with different additional antibacterial agents (amikacin, gentamicin, colistin, meropenem and tobramycin) as follows:
Serial two-fold dilutions of the antimicrobial agents alone or in combination in wells of 96 well microtiter plates were inoculated with the appropriate inoculum so that each well contained approximately 4-5×10^4 CFU/ml. Plates were incubated at 35° C. for 16-20 hours. Combination concentrations were tested between 0.25×MIC and 2×MIC. Growth and sterility controls were also included in each plate.
Synergy, indifference and antagonism were calculated based upon the use of the fractional inhibitory concentration (FIC) indices as described by Pillai, Moellering & Eliopoulos (2005) whereby:
Synergism=FIC index of ≦0.5 Indifference=FIC index >1 but ≦4 Additivity >0.5 to 1 Antagonism=FIC index of >4
Checkerboard studies were carried out as described in General Procedures using twenty different A. baumannii isolates with 5 per sub-group of: susceptible, amikacin-resistant, colistin-resistant and meropenem-resistant.

A. baumannii isolates [4] = test: Individual antimicrobial susceptibility testing (MIC, broth microdilution, CLSI)
Description: In the antimicrobial susceptibility testing 77 isolates of A. baumannii (from 2010) in the following sub-groups were tested: • 22 isolates generally susceptible to antimicrobial agents (“Sus”) • 20 carbapenem-resistant isolates (e.g. “MPM-R”) • 20 aminoglycoside-resistant isolates (e.g. “AMK-R”) • 15 colistin-resistant isolates. (e.g. “COL-R”)
Minimum inhibitory concentration (MIC) endpoints were determined by broth microdilution according to CLSI guidelines (CLSI, M7-A8 & M100-S22, 2012). Panels were prepared at IHMA using cation-adjusted Mueller-Hinton broth. Colonies were taken directly from a second-pass culture plate and prepared to a suspension equivalent of the 0.5 McFarland standard using normal saline.
Testing was carried out as described in the General Procedures to determine minimum inhibitory concentration (MIC) end points for compound (I), amikacin, colistin, gentamicin, meropenem and tobramycin, for 77 A. baumannii isolates. Under the “MIC (μg/ml)” heading, the first column (Range) indicates the MIC end points for the particular number (N) of isolates tested, the second column (50%) provides an estimate of the concentration that inhibits 50% (MIC50) of bacterial isolates tested, and the third column (90%) provides an estimate of the concentration that inhibits 90% of the bacterial isolates tested.

[5] = Amikacin-resistant isolates, N=20
[6] = Colistin-resistant isolates, N=15
[7] = Meropenem-resistant isolates, N=20

## colistin
[1]; A. baumannii AYE
  MIC: 1 µg/mL
[1]; A. baumannii CIP 5377
  MIC: 0.5 µg/mL
[1]; A. baumannii CIP 7034
  MIC: 0.5 µg/mL
[1]; A. baumannii RCH
  MIC: 0.5 µg/mL
[1]; A. baumannii SAN
  MIC: 1 µg/mL
A. baumannii isolates [2]; AMK-R-1, 1xMIC
  Time to kill 99.9%: 1.4 h
A. baumannii isolates [2]; AMK-R-1, 4xMIC
  Time to kill 99.9%: 1.3 h
A. baumannii isolates [2]; AMK-R-2, 1xMIC
  Time to kill 99.9%: 2.3 h
A. baumannii isolates [2]; AMK-R-2, 4xMIC
  Time to kill 99.9%: 1.8 h
A. baumannii isolates [2]; AMK-R-3, 1xMIC
  Time to kill 99.9%: >24 h^
A. baumannii isolates [2]; AMK-R-3, 4xMIC
  Time to kill 99.9%: 2.9 h
A. baumannii isolates [2]; COL-R-1, 1xMIC
  Time to kill 99.9%: 2.8 h
A. baumannii isolates [2]; COL-R-1, 4xMIC
  Time to kill 99.9%: 2.3 h
A. baumannii isolates [2]; COL-R-2, 1xMIC
  Time to kill 99.9%: >24 h^
A. baumannii isolates [2]; COL-R-2, 4xMIC
  Time to kill 99.9%: >24 h
A. baumannii isolates [2]; COL-R-3, 1xMIC
  Time to kill 99.9%: 2.7 h
A. baumannii isolates [2]; COL-R-3, 4xMIC
  Time to kill 99.9%: 2.1 h
A. baumannii isolates [2]; MPM-R-1 (second line, Table 8 r14), 1xMIC
  Time to kill 99.9%: 1.3 h
A. baumannii isolates [2]; MPM-R-1 (second line, Table 8 r14), 4xMIC
  Time to kill 99.9%: 1.6 h
A. baumannii isolates [2]; MPM-R-1, 1xMIC
  Time to kill 99.9%: 5.0 h
A. baumannii isolates [2]; MPM-R-1, 4xMIC
  Time to kill 99.9%: 8.1 h
A. baumannii isolates [2]; MPM-R-3, 1xMIC
  Time to kill 99.9%: 2 h
A. baumannii isolates [2]; MPM-R-3, 4xMIC
  Time to kill 99.9%: 5.1 h
A. baumannii isolates [2]; Sus-1, 1xMIC
  Time to kill 99.9%: >24 h^
A. baumannii isolates [2]; Sus-1, 4xMIC
  Time to kill 99.9%: >24 h
A. baumannii isolates [2]; Sus-2, 4xMIC
  Time to kill 99.9%: 6.3 h
A. baumannii isolates [2]; Sus-3, 1xMIC
  Time to kill 99.9%: 1.6 h
A. baumannii isolates [2]; Sus-3, 4xMIC
  Time to kill 99.9%: 3.6 h
A. baumannii isolates [2]; alone at 1× or 4×MIC
  effect in time-kill studies when tested alone: generally bactericidal
A. baumannii isolates [2]; isolate AMK-R-1
  MIC: 0.5 µg/mL
A. baumannii isolates [2]; isolate AMK-R-2
  MIC: 0.5 µg/mL
A. baumannii isolates [2]; isolate AMK-R-3
  MIC: 0.25 µg/mL
A. baumannii isolates [2]; isolate COL-R-1
  MIC: 8 µg/mL
A. baumannii isolates [2]; isolate COL-R-2
  MIC: 4 µg/mL
A. baumannii isolates [2]; isolate COL-R-3
  MIC: 16 µg/mL
A. baumannii isolates [2]; isolate MPM-R-1
  MIC: 0.25 µg/mL
A. baumannii isolates [2]; isolate MPM-R-3
  MIC: 1 µg/mL
A. baumannii isolates [2]; isolate Sus-1
  MIC: 1 µg/mL
A. baumannii isolates [2]; isolate Sus-2
  MIC: 0.5 µg/mL
A. baumannii isolates [2]; isolate Sus-3
  MIC: 0.25 µg/mL
A. baumannii isolates [2]; isolate printed MPM-R-1 (second such line of Table 8, r14)
  MIC: 1 µg/mL
A. baumannii isolates [3]; A. baumannii 441142, colistin-resistant
  MIC: 8 µg/mL
A. baumannii isolates [3]; A. baumannii 441160, colistin-resistant
  MIC: 4 µg/mL
A. baumannii isolates [3]; A. baumannii 463996, colistin-resistant
  MIC: 4 µg/mL
A. baumannii isolates [3]; A. baumannii 466936, colistin-resistant
  MIC: 8 µg/mL
A. baumannii isolates [3]; A. baumannii 517303, colistin-resistant
  MIC: >1024 µg/mL
A. baumannii isolates [3]; A. baumannii 618649, meropenem-resistant
  MIC: 0.5 µg/mL
A. baumannii isolates [3]; A. baumannii 625917, meropenem-resistant
  MIC: 0.5 µg/mL
A. baumannii isolates [3]; A. baumannii 628760, susceptible
  MIC: 0.5 µg/mL
A. baumannii isolates [3]; A. baumannii 637723, amikacin-resistant
  MIC: 0.5 µg/mL
A. baumannii isolates [3]; A. baumannii 638115, amikacin-resistant
  MIC: 0.5 µg/mL
A. baumannii isolates [3]; A. baumannii 650216, meropenem-resistant
  MIC: 0.25 µg/mL
A. baumannii isolates [3]; A. baumannii 655932, amikacin-resistant
  MIC: 0.5 µg/mL
A. baumannii isolates [3]; A. baumannii 661954, amikacin-resistant
  MIC: 1 µg/mL
A. baumannii isolates [3]; A. baumannii 667848, meropenem-resistant
  MIC: 0.5 µg/mL
A. baumannii isolates [3]; A. baumannii 668116, susceptible
  MIC: 1 µg/mL
A. baumannii isolates [3]; A. baumannii 668239, amikacin-resistant
  MIC: 0.5 µg/mL
A. baumannii isolates [3]; A. baumannii 670348, susceptible
  MIC: 0.5 µg/mL
A. baumannii isolates [3]; A. baumannii 671050, meropenem-resistant
  MIC: 0.5 µg/mL
A. baumannii isolates [3]; A. baumannii 672190, susceptible
  MIC: 0.5 µg/mL
A. baumannii isolates [3]; A. baumannii 674340, susceptible
  MIC: 0.5 µg/mL
A. baumannii isolates [4]; 77 isolates, FIG. 1 and 2
  mode MIC: lowest mode MIC
A. baumannii isolates [4]; All isolates, N=77
  MIC 50%: 0.5 µg/mL
  MIC 90%: 8 µg/mL
A. baumannii isolates [4]; [5]
  MIC 50%: 0.5 µg/mL
  MIC 90%: 1 µg/mL
  MIC Range: 0.25 to 2 µg/mL
A. baumannii isolates [4]; [6]
  MIC 50%: 8 µg/mL
  MIC 90%: >32 µg/mL
A. baumannii isolates [4]; [7]
  MIC 50%: 0.5 µg/mL
  MIC 90%: 1 µg/mL
  MIC Range: 0.25 to 1 µg/mL
A. baumannii isolates [4]; Susceptible isolates, N=22
  MIC 50%: 0.5 µg/mL
  MIC 90%: 0.5 µg/mL
  MIC Range: 0.06 to 1 µg/mL
